# Reference: PMC8727733, “Improvement of glycine biosynthesis from one‐carbon compounds and ammonia catalyzed by the glycine cleavage system in vitro” (Engineering in Life Sciences, 2021)
# Target: T1, glycine cleavage system (GCS), L protein with P, T and H proteins (Escherichia coli, UniProt P0A9P0)
# T1 construct: gene lpdA; printed WP records may differ from the MG1655 alleles; with Glycine dehydrogenase (decarboxylating); Aminomethyltransferase; Glycine cleavage system H protein
# T1 sequence (P0A9P0 2-474): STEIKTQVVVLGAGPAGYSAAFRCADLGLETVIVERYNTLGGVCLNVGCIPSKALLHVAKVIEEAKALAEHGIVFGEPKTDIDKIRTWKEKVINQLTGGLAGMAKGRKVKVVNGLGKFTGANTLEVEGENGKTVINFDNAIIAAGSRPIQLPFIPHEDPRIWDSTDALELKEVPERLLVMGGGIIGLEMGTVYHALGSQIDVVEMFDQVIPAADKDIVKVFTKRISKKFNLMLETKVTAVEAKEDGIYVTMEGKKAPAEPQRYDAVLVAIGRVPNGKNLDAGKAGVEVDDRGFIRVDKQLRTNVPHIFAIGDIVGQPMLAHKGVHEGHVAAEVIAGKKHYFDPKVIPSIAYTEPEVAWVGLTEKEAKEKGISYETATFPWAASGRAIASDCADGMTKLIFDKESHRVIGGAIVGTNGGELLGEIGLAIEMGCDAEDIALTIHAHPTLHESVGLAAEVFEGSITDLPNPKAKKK
# T1 sequence (P0A6T9 2-129 partner): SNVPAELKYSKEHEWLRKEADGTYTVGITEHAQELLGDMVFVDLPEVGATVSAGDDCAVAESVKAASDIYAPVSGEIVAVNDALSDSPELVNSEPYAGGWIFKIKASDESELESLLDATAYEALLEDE
# Experiment: glycine-dependent NADH formation, spectrophotometric, reconstituted GCS
# Format: biochemical
# Details: 5 mM NAD+, 50 mM glycine, 0.5 mM THF, 20 mM DTT, 25 uM PLP, 50 mM Tris-HCl pH 7.5, 37 C; overall glycine cleavage
structure (smiles),measurement,value
NC(=O)c1ccc[n+]([C@@H]2O[C@H](COP(=O)(O)OP(=O)(O)OC[C@H]3O[C@@H](n4cnc5c(N)ncnc54)[C@H](O)[C@@H]3O)[C@@H](O)[C@H]2O)c1 [NAD+],"glycine-dependent NADH formation, spectrophotometric, reconstituted GCS",measuring glycine‐dependent NADH formation
